From patent US20260356840A1, “[1,2,4]TRIAZOLO[1,5-A]PYRIMIDINONE WRN INHIBITORS” (Nimbus Wadjet, Inc., priority 2023, published 2026)

Target: T1, human Werner helicase (Uniprot Q14191, amino acids 517-1235 with L1074F point mutation), WRN-BV08 (Homo sapiens, UniProt Q14191, L1074F)
T1 construct: Uniprot Q14191, amino acids 517-1235 with L1074F point mutation; TEV cleavable 8xHis tag (C, cleaved yes); made in house; host or cells: Sf9 insect cells (baculovirus, pFastBac)
Test: WRN (BV08) ADP-Glo Assay
Type: biochemical
Experimental: DNA duplex was synthesized at BGI (Shenzhen, China) and was composed of strand 1 with the sequence 5′-[…]-3′ (SEQ ID NO.: 1) and strand 2 with the sequence 5′-[…]-3′ (SEQ ID NO.: 2). DNA strands were annealed by heating to 95 °C for 5 minutes followed by slow cooling to room temperature. […] DMSO (0.1 μl) was added to columns 12, rows A-H and column 24, rows I-P for the maximum signal control.
Where RLU=relative luminescence units, sample=signal in sample well, and MIN and MAX are the respective minimum and maximum signal controls. • Four-parameter IC50 fit equation:
Y=Bottom+(Top−Bottom)/(1+(IC50/X)^Hill Slope)
Where top and bottom are normally allowed to float but may be fixed at 100 or 0 respectively in a 3-parameter fit. Y is the % inhibition and X is the compound concentration.
Molecular Biology and virus production. […] The baculovirus from the expression plasmid WRN-BV08 was generated from transfection and amplification following the manufacturer's instructions.
Sf9 cells grown in SF900II media were infected with 1:200 WRN-BV08 P2 virus and incubated for protein expression for 72 h at 27 °C. The WRN protein was purified using the following protocol. The cell pellets were thawed and resuspended in buffer A (50 mM Tris, pH 7.5, 500 mM NaCl, 1 mM TCEP, 10% Glycerol) supplemented with 0.5% CHAPS, 1 mM [COMPOUND LEFT OUT], 1 μg/ml Leupeptin, 1 μg/ml Pepstatin, and the Pierce Universal Nuclease and cocktail tablet. Cleared lysates were loaded onto a Ni Sepharose™ excel column and washed with buffer A and bound protein was eluted with buffer A supplemented with 300 mM imidazole. The eluted protein was dialyzed against buffer A and digested by His-tagged TEV (1:5 ratio) overnight at 4 °C. […] Untagged WRN protein was eluted from the column with buffer A supplemented with 20 mM imidazole, dialyzed overnight into buffer B (50 mM Tris, pH 7.5, 1 mM TCEP, 10% Glycerol) supplemented with 150 mM NaCl and loaded onto a Heparin column. Proteins were eluted with a step gradient of buffer B supplemented with 150 mM, 200 mM, 300 mM and 500 mM NaCl.

T1 sequence (Q14191 517-1235 L1074F): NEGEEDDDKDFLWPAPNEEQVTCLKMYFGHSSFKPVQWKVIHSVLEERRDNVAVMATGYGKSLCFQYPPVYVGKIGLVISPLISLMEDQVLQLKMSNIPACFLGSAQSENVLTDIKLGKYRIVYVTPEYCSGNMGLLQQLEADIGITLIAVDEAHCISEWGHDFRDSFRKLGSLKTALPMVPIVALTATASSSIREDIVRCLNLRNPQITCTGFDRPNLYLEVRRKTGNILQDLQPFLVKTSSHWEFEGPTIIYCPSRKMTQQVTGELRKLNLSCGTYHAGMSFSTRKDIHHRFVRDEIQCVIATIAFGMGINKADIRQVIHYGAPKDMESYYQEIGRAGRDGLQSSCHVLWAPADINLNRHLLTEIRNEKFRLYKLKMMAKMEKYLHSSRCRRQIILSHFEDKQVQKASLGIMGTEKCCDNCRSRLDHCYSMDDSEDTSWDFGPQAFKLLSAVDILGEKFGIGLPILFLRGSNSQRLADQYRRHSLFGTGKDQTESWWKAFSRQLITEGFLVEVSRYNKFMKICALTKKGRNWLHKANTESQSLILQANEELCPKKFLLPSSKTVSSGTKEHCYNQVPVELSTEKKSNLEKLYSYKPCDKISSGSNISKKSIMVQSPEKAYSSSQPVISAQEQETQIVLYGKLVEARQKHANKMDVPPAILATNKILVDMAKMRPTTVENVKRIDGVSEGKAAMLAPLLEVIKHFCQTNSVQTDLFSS

Structure (SMILES) | IC50 [nM]
CCc1c(N2CC3CN(C(=O)c4ncnc(C)c4O)CC3C2)c(=O)n2nc(C3=CCOCC3)nc2n1CC(=O)Nc1ccc(C(F)(F)F)cc1Cl (stereo not drawn) [Compound I-8, N-[2-chloro-4-(trifluoromethyl)phenyl]-2-[2-(3,6-dihydro-2H-pyran-4-yl)-5-ethyl-6-[5-(5-hydroxy-6-methylpyrimidine-4-carbonyl)-octahydropyrrolo[3,4-c]pyrrol-2-yl]-7-oxo-4H,7H-[1,2,4]triazolo[1,5-a]pyrimidin-4-yl]acetamide] | 5 to 50
CCc1c(N2CCN(C(=O)C(F)F)CC2)c(=O)n2nc(-c3ccnc(OC)c3)nc2n1CC(=O)Nc1ccc(C(F)(F)F)cc1Cl [Compound I-53, N-[2-chloro-4-(trifluoromethyl)phenyl]-2-{6-[4-(2,2-difluoroacetyl)piperazin-1-yl]-5-ethyl-2-(2-methoxypyridin-4-yl)-7-oxo-4H,7H-[1,2,4]triazolo[1,5-a]pyrimidin-4-yl}acetamide] | 5 to 50
CCc1c(N2CCN(C(=O)c3ncc4c(c3O)OCC4)CC2)c(=O)n2nc(C3=CCOCC3)nc2n1CC(=O)Nc1ccc(C(F)(F)F)cc1Cl [Compound I-83, N-[2-chloro-4-(trifluoromethyl)phenyl]-2-[2-(3,6-dihydro-2H-pyran-4-yl)-5-ethyl-6-(4-{7-hydroxy-2H,3H-furo[3,2-c]pyridine-6-carbonyl}piperazin-1-yl)-7-oxo-4H,7H-[1,2,4]triazolo[1,5-a]pyrimidin-4-yl]acetamide] | 5 to 50
CCc1c(N2CCN(C(=O)c3ncc(C)s3)CC2)c(=O)n2nc(-c3ccnc(OC)c3)nc2n1CC(=O)Nc1ccc(C(F)(F)F)cc1Cl [Compound I-58, N-[2-chloro-4-(trifluoromethyl)phenyl]-2-[5-ethyl-2-(2-methoxypyridin-4-yl)-6-[4-(5-methyl-1,3-thiazole-2-carbonyl)piperazin-1-yl]-7-oxo-4H,7H-[1,2,4]triazolo[1,5-a]pyrimidin-4-yl]acetamide] | 50 to 100
CCc1c(N2CCN(C(=O)c3ncnc(C)c3O)CC2)c(=O)n2nc(-c3ccn(C4CC4)n3)nc2n1CC(=O)Nc1ccc(C(F)(F)F)cc1Cl [Compound I-33, N-[2-chloro-4-(trifluoromethyl)phenyl]-2-[2-(1-cyclopropyl-1H-pyrazol-3-yl)-5-ethyl-6-[4-(5-hydroxy-6-methylpyrimidine-4-carbonyl)piperazin-1-yl]-7-oxo-4H,7H-[1,2,4]triazolo[1,5-a]pyrimidin-4-yl]acetamide] | 5 to 50
CCc1c(N2CCN(C(=O)c3c(C)nn(C)c3OC)CC2)c(=O)n2nc(-c3ccnc(OC)c3)nc2n1CC(=O)Nc1ccc(C(F)(F)F)cc1Cl [Compound I-62, N-[2-chloro-4-(trifluoromethyl)phenyl]-2-{5-ethyl-6-[4-(5-methoxy-1,3-dimethyl-1H-pyrazole-4-carbonyl)piperazin-1-yl]-2-(2-methoxypyridin-4-yl)-7-oxo-4H,7H-[1,2,4]triazolo[1,5-a]pyrimidin-4-yl}acetamide] | 5 to 50
CCc1c(N2CCN(C(=O)c3nn(C)cc3O)CC2)c(=O)n2nc(-c3ccnc(OC)c3)nc2n1CC(=O)Nc1ccc(C(F)(F)F)cc1Cl [Compound I-35, N-[2-chloro-4-(trifluoromethyl)phenyl]-2-{5-ethyl-6-[4-(4-hydroxy-1-methyl-1H-pyrazole-3-carbonyl)piperazin-1-yl]-2-(2-methoxypyridin-4-yl)-7-oxo-4H,7H-[1,2,4]triazolo[1,5-a]pyrimidin-4-yl}acetamide] | 5 to 50
CCc1c(N2CCN(C(=O)c3cccc4cccnc34)CC2)c(=O)n2nc(C3=CCOCC3)nc2n1CC(=O)Nc1ccc(C(F)(F)F)cc1Cl [Compound I-19, N-[2-chloro-4-(trifluoromethyl)phenyl]-2-[2-(3,6-dihydro-2H-pyran-4-yl)-5-ethyl-7-oxo-6-[4-(quinoline-8-carbonyl)piperazin-1-yl]-4H,7H-[1,2,4]triazolo[1,5-a]pyrimidin-4-yl]acetamide] | 5 to 50
CCc1c(N2CCN(C(=O)c3cnn(C)c3)CC2)c(=O)n2nc(-c3ccnc(OC)c3)nc2n1CC(=O)Nc1ccc(C(F)(F)F)cc1Cl [Compound I-48, N-[2-chloro-4-(trifluoromethyl)phenyl]-2-[5-ethyl-2-(2-methoxypyridin-4-yl)-6-[4-(1-methyl-1H-pyrazole-4-carbonyl)piperazin-1-yl]-7-oxo-4H,7H-[1,2,4]triazolo[1,5-a]pyrimidin-4-yl]acetamide] | < 5
CCc1c(N2CCN(C(C)=O)CC2)c(=O)n2nc(-c3cnc(C(C)(C)O)s3)nc2n1CC(=O)Nc1ccc(C(F)(F)F)cc1Cl [Compound I-87, 2-[6-(4-acetylpiperazin-1-yl)-5-ethyl-2-[2-(2-hydroxypropan-2-yl)-1,3-thiazol-5-yl]-7-oxo-4H,7H-[1,2,4]triazolo[1,5-a]pyrimidin-4-yl]-N-[2-chloro-4-(trifluoromethyl)phenyl]acetamide] | 5 to 50
CCc1c(N2CCN(C(=O)c3c(F)cccc3F)CC2)c(=O)n2nc(C3=CCOCC3)nc2n1CC(=O)Nc1ccc(C(F)(F)F)cc1Cl [Compound I-10, N-[2-chloro-4-(trifluoromethyl)phenyl]-2-{6-[4-(2,6-difluorobenzoyl)piperazin-1-yl]-2-(3,6-dihydro-2H-pyran-4-yl)-5-ethyl-7-oxo-4H,7H-[1,2,4]triazolo[1,5-a]pyrimidin-4-yl}acetamide] | 5 to 50
CCc1c(N2CCN(C(=O)c3ccnc4cccnc34)CC2)c(=O)n2nc(C3=CCOCC3)nc2n1CC(=O)Nc1ccc(C(F)(F)F)cc1Cl [Compound I-37, N-[2-chloro-4-(trifluoromethyl)phenyl]-2-[2-(3,6-dihydro-2H-pyran-4-yl)-5-ethyl-6-[4-(1,5-naphthyridine-4-carbonyl)piperazin-1-yl]-7-oxo-4H,7H-[1,2,4]triazolo[1,5-a]pyrimidin-4-yl]acetamide] | 5 to 50
CCc1c(N2CCN(C(=O)c3cnn(C)c3)[C@H](C)C2)c(=O)n2nc(-c3ccnc(OC)c3)nc2n1CC(=O)Nc1ccc(C(F)(F)F)cc1Cl [Compound I-77, N-[2-chloro-4-(trifluoromethyl)phenyl]-2-[5-ethyl-2-(2-methoxypyridin-4-yl)-6-[(3R)-3-methyl-4-(1-methyl-1H-pyrazole-4-carbonyl)piperazin-1-yl]-7-oxo-4H,7H-[1,2,4]triazolo[1,5-a]pyrimidin-4-yl]acetamide] | 5 to 50
CCc1c(N2CCN(C(=O)c3ncn(C)n3)CC2)c(=O)n2nc(-c3ccnc(OC)c3)nc2n1CC(=O)Nc1ccc(C(F)(F)F)cc1Cl [Compound I-73, N-[2-chloro-4-(trifluoromethyl)phenyl]-2-[5-ethyl-2-(2-methoxypyridin-4-yl)-6-[4-(1-methyl-1H-1,2,4-triazole-3-carbonyl)piperazin-1-yl]-7-oxo-4H,7H-[1,2,4]triazolo[1,5-a]pyrimidin-4-yl]acetamide] | 5 to 50
CCc1c(N2CCN(C(=O)c3cn(C)[nH]c3=O)CC2)c(=O)n2nc(C3=CCOCC3)nc2n1CC(=O)Nc1ccc(C(F)(F)F)cc1Cl [Compound I-11, N-[2-chloro-4-(trifluoromethyl)phenyl]-2-[2-(3,6-dihydro-2H-pyran-4-yl)-5-ethyl-6-[4-(3-hydroxy-1-methyl-1H-pyrazole-4-carbonyl)piperazin-1-yl]-7-oxo-4H,7H-[1,2,4]triazolo[1,5-a]pyrimidin-4-yl]acetamide] | < 5
CCc1c(N2CCN(C(=O)c3cnn(C)c3)CC2)c(=O)n2nc(-c3cc(OC)ncn3)nc2n1CC(=O)Nc1ccc(C(F)(F)F)cc1Cl [Compound I-71, N-[2-chloro-4-(trifluoromethyl)phenyl]-2-[5-ethyl-2-(6-methoxypyrimidin-4-yl)-6-[4-(1-methyl-1H-pyrazole-4-carbonyl)piperazin-1-yl]-7-oxo-4H,7H-[1,2,4]triazolo[1,5-a]pyrimidin-4-yl]acetamide] | 5 to 50
CCc1c(N2CCN(C(=O)c3ncnn3C)CC2)c(=O)n2nc(-c3ccnc(OC)c3)nc2n1CC(=O)Nc1ccc(C(F)(F)F)cc1Cl [Compound I-79, N-[2-chloro-4-(trifluoromethyl)phenyl]-2-[5-ethyl-2-(2-methoxypyridin-4-yl)-6-[4-(1-methyl-1H-1,2,4-triazole-5-carbonyl)piperazin-1-yl]-7-oxo-4H,7H-[1,2,4]triazolo[1,5-a]pyrimidin-4-yl]acetamide] | 5 to 50
CCc1c(N2CCN(C(=O)c3cnn(C)c3)CC2)c(=O)n2nc(-c3cnc(OC)nc3)nc2n1CC(=O)Nc1ccc(C(F)(F)F)cc1Cl [Compound I-51, N-[2-chloro-4-(trifluoromethyl)phenyl]-2-[5-ethyl-2-(2-methoxypyrimidin-5-yl)-6-[4-(1-methyl-1H-pyrazole-4-carbonyl)piperazin-1-yl]-7-oxo-4H,7H-[1,2,4]triazolo[1,5-a]pyrimidin-4-yl]acetamide] | 5 to 50
